Read-outs that look alike come from different tables or passages of the source.
Assays:
[1] = in vivo
Description: (§1) The irritancy of the products of some of the synthesis examples (if necessary after purification) was tested using standard testing protocols.

[2] = in vivo; remark: listed apart in the source
Description: as §1

[3] = system: Daphnia magna; test: aquatic toxicity to Daphnia magna, standard bio-assay; type: in vivo; details: end of the 48 hour assay procedure
Description: The results are given below:

[4] = system: fungal leaf rust (Puccinia recondite); test: AE5 field trial, tebuconazole fungicide with adjuvant on winter wheat leaf rust; type: in vivo; details: infected leaf area
Description: Field trials were carried out to test the effectiveness of fungicide on winter wheat (variety Versailles) using the active Horizon EW (tebuconazole) (250 g.I^−1) in the control of fungal leaf rust (Puccinia recondite). The plots were sprayed at a spray volume 300 I.ha^−1, with the adjuvants added as tank mix additives at a concentration of 0.1% weightivolume on the spray. The normal application rate (NAR) for Horizon alone is 1 I.ha^−1 (250 g.ha^−1) and this was used as a control together with 0.75 I.ha^−1 (187.5 g.ha^−1; […]). An untreated control was also included. For these trials, adjuvant containing formulations were at ¾ NAR for the active and 0.1% weight/volume (300 g.ha^−1) adjuvant The effect of the spraying was assessed 3 weeks after treatment and is expressed as % infected leaf area (2 and 3 top leaves).

[5] = irritancy, standard testing protocols: eye; details: in vivo
Description: as §1

[6] = irritancy, standard testing protocols: skin; details: in vivo
Description: as §1

[7] = tebuconazole 187.5 g · ha^−1, adjuvant (where used) 300 g · ha^−1, 3 weeks after treatment
[8] = tebuconazole 250 g · ha^−1, adjuvant (where used) 300 g · ha^−1, 3 weeks after treatment

Compound	Irritation assessment Skin [1]	Irritation assessment Eye [2]	EC50 for immobilising the Daphnia [3] [mg.I^−1]	other results
1-(N,N-bis(N-1-deoxyglucitylamino)amonium)-2-hydroxy-3-dodecyloxy Propane Sulphate [SE25]	slight	moderate	–	–
1-(N-1-deoxyglucitylamino)2-hydroxyl-3-(branched octadecyloxy poly-10PO-10EO) propane [SE21]	slight/moderate	practically none/slight	31.4	–
CC(C)(C)C(O)(CCc1ccc(Cl)cc1)Cn1cncn1 (racemic) [tebuconazole, (RS)1-p-chlorophenyl4,4-dimethyl-3-(1H-1,2,4triazole-1-ylmethyl)-pentan-3ol]	–	–	–	% infected 2 leaf [4, 7]: 2.5%; % infected 3 leaf [4, 7]: 10%; % infected 2 leaf [4, 8]: 2.5%; % infected 3 leaf [4, 8]: 2.5%
CCCCCCCCCCOCC(O)CN(C)C[C@H](O)[C@@H](O)[C@H](O)[C@H](O)CO (some centres unmarked) [SE10, 1-(N-methyl-N-1-deoxyglucitylamino)2-hydroxy-3-decyloxy propane]	practically none	moderate/severe	–	–
CCCCCCCCCCCCCCOCC(O)CN(CC(O)C(O)C(O)C(O)CO)CC(O)C(O)C(O)C(O)CO (centres unmarked) [SE20, 1-(N-bis-sorbitylamino)2-hydroxyl-3-tetradecyloxy propane]	–	–	>100	–
Betaine from 1-(N-1-deoxyglucitylamino)-2-hydroxy-3-dodecyloxy Propane [SE23]	–	–	–	Irritation assessment Eye [5]: moderate; Irritation assessment Skin [6]: slight

Source: patent publication US20020168417A1, “Agrochemical compositions and surfactant compounds” (priority 1999, published 2002)
